Experimental data: PMC10150366, “Discovery of an In Vivo Chemical Probe for BCL6 Inhibition by Optimization of Tricyclic Quinolinones” (Journal of Medicinal Chemistry, 2023)

Target: T1, ADRA1A (Homo sapiens, UniProt P35348)
T1 sequence (P35348 1-466): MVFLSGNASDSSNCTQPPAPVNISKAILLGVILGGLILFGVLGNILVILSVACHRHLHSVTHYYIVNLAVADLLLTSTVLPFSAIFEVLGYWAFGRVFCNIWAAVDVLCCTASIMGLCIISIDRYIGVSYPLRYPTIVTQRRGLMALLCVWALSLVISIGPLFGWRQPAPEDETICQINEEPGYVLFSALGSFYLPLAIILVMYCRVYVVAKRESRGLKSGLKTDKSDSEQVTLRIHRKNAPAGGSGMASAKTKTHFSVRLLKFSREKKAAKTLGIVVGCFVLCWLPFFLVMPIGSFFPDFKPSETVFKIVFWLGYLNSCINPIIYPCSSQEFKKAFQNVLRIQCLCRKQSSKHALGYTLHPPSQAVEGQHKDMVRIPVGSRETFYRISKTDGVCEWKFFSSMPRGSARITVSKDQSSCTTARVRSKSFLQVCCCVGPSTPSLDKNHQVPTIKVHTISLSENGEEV
Assay: SAFETYscan Calcium Flux ADRA1A Antagonist
Format: cell-based
From the text: Supplement jm3c00155_si_002.xlsx, sheet "SAFETYScan" | column: RC50 (uM); Max Response

Cn1c(=O)c2c(c3cc(Nc4ccnc(F)c4Cl)ccc31)N[C@@H](C1CC1)C(F)(F)CO2 [compound 17, (S)-10-((3-chloro-2-fluoropyridin-4-yl)amino)-2-cyclopropyl-3,3-difluoro-7-methyl-1,2,3,4-tetrahydro-[1,4]oxazepino[2,3-c]quinolin-6(7H)-one]
IC50: > 10 µM | Emax (ADRA1A, Calcium Flux, Antagonist, read-out: Max Response): 0%
